Target: T1, CYP2B6 (Homo sapiens, UniProt P20813)
T1 sequence (P20813 1-491): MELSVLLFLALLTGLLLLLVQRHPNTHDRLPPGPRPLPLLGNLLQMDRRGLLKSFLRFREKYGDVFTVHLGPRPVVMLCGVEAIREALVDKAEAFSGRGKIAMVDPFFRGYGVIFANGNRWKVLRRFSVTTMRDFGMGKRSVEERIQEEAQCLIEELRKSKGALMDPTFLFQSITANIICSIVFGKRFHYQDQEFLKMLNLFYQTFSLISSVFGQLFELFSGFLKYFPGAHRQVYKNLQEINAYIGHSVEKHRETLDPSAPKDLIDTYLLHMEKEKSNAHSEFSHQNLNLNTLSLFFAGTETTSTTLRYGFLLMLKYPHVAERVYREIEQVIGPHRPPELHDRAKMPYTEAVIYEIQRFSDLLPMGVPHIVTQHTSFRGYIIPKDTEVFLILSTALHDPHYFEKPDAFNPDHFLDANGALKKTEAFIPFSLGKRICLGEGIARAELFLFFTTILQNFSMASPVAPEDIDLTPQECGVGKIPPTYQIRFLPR
Assay: Direct inhibition of CYP2B6 (Bupropion hydroxylase) activity in pooled human liver microsomes
Conditions: pH 7.4, probe Bupropion (hydroxylation to hydroxyBupropion)
Method: The total amount of organic solvent was ≦1%. Each incubation included 0.1 M phosphate buffer (pH 7.4), substrate, inhibitor and microsomal protein in a final volume of approximately 0.5 mL. Reactions were initiated by addition of NADPH (1 mM final concentration) and incubated for the indicated times at 37° C. with gentle agitation.
Control incubations included positive inhibitor control samples for direct inhibition as well as samples without NADPH. All reactions were terminated by the addition of organic solvent, and internal standard was added (when appropriate), and samples were mixed and centrifuged at approximately 3000 rpm for 10 minutes. The organic layer was transferred to a clean tube and evaporated to dryness at about 40° C. under nitrogen. The sample was reconstituted and analyzed by LC MS/MS.
Incubations to determine CYP2B6-mediated conversion of Bupropion to hydroxyBupropion (OHBP) in microsomal preparations were terminated by addition of 2.5 mL isoamyl alcohol: ethyl acetate (1:100, v:v). The internal standard, hydroxyBupropion-d6, and a saturated sodium chloride solution (0.25 mL) were added to all samples. […]
Reaction velocities (V) were calculated using Equation 1:
V(nmol/min/mg)=calculated ng/mL×0.5mL/(MW ng/nmol)/min/mg Equation 1
Percentage of remaining activity was determined using the following equation: […]

## S=P(N1CC1)(N1CC1)N1CC1 [Positive Control, ThioTEPA]
  activity at 75 μM: 22.8%

From US20100016294A1, “METHODS FOR REDUCING THE RISK OF AN ADVERSE DRUG I[…] A PATIENT SUFFERING FROM INSOMNIA” (QUESTCOR PHARMACEUTICALS, INC., priority 2008, published 2010)
